biological target: Cdc7/Dbf4 (Homo sapiens (Human), UniProt O00311); test: Cdc7 Inhibition Assay; assay type: biochemical; details: 6 data point; read-out: Ki (μM) 6 data point;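 also: reaction mixtures incubated 30 min on streptavidin-coated plates, then quantified by scintillation counting, with inhibition curves fitted by non-linear regression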
Sequence (O00311 whole entry): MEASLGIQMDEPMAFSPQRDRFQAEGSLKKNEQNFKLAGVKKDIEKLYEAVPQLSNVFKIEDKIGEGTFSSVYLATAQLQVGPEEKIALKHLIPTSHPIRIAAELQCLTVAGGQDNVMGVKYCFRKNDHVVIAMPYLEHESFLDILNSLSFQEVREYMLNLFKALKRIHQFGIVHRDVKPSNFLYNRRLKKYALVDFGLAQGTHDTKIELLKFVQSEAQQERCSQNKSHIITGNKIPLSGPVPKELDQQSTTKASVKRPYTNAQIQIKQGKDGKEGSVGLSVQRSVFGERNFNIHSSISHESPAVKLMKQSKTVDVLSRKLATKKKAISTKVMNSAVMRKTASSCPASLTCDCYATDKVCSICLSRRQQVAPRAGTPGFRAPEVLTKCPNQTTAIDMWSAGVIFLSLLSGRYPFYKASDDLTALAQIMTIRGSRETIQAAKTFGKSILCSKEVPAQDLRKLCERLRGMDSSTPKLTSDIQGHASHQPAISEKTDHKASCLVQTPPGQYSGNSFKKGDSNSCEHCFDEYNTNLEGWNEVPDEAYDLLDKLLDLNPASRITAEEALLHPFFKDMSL
Sequence (Q9UBU7 whole entry partner): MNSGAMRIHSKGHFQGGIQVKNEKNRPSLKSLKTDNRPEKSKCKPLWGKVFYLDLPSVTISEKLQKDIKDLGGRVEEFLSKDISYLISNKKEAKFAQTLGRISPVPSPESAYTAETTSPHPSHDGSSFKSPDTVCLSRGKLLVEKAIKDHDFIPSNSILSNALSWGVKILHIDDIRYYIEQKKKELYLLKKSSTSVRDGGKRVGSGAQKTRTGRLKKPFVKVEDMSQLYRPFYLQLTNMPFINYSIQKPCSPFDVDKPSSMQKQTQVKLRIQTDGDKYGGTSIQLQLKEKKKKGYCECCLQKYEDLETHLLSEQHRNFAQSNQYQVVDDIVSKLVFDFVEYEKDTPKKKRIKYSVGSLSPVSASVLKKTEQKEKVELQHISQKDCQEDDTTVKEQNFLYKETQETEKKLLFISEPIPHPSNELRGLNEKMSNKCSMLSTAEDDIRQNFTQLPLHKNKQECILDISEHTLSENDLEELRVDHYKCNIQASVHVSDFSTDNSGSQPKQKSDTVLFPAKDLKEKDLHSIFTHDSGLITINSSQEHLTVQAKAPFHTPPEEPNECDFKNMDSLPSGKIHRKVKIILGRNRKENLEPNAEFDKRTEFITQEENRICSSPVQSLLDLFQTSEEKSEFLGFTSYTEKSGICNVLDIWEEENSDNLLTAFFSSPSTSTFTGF
Description: The reactions were incubated for 30 minutes on streptavidin-coated plates, washed, and quantified using a TopCount scintillation plate reader (Packard). IC50 values are determined via non-linear regression fitting of the data.

Row | SMILES | Ki [µM]
1 | O=C(c1cccc(Cl)c1)c1c(-c2ccc3[nH]ncc3c2)nnn1CC1CCOCC1 [Example 146, (3-chlorophenyl)[4-(1H-indazol-5-yl)-1-(tetrahydro-2H-pyran-4-ylmethyl)-1H-1,2,3-triazol-5-yl]methanone] | 0.229
2 | O=C(c1c(-c2ccc3[nH]ncc3c2)nnn1Cc1ccccc1)N1CCCCC1 [Example 169, 5-[1-benzyl-5-(piperidin-1-ylcarbonyl)-1H-1,2,3-triazol-4-yl]-1H-indazole] | > 1.23
3 | Cc1ccccc1-c1c(-c2ccc3[nH]nc(N)c3c2)nnn1CC1CCOCC1 [Example 171, 5-[5-(2-methylphenyl)-1-(tetrahydro-2H-pyran-4-ylmethyl)-1H-1,2,3-triazol-4-yl]-1H-indazol-3-amine] | 0.03
4 | O=C(c1c(-c2ccc3[nH]ncc3c2)nnn1Cc1ccccc1)N1CCOCC1 [Example 172, 5-[1-benzyl-5-(morpholin-4-ylcarbonyl)-1H-1,2,3-triazol-4-yl]-1H-indazole] | > 1.23
5 | NC1CCN(C(=O)c2c(-c3ccc4[nH]ncc4c3)nnn2Cc2ccccc2)CC1 [Example 197, 1-{[1-benzyl-4-(1H-indazol-5-yl)-1H-1,2,3-triazol-5-yl]carbonyl}piperidin-4-amine] | 1.23
6 | c1ccc(CNc2n[nH]c3ccc(-c4nnn(Cc5ccccc5)c4C4CC4)cc23)cc1 [Example 207, N-benzyl-5-(1-benzyl-5-cyclopropyl-1H-1,2,3-triazol-4-yl)-1H-indazol-3-amine] | 0.046
7 | O=C(Nc1ccccc1)c1c(-c2ccc3[nH]ncc3c2)nnn1Cc1ccccc1 [Example 243, 1-benzyl-4-(1H-indazol-5-yl)-N-phenyl-1H-1,2,3-triazole-5-carboxamide] | > 1.23
8 | CC1CN(C(=O)c2c(-c3ccc4[nH]ncc4c3)nnn2Cc2ccccc2)CC(C)O1 (stereo not shown) [Example 254, 5-{1-benzyl-5-[(2,6-dimethylmorpholin-4-yl)carbonyl]-1H-1,2,3-triazol-4-yl}-1H-indazole] | > 1.23
9 | CC(=O)N1CCN(C(=O)c2c(-c3ccc4[nH]ncc4c3)nnn2Cc2ccccc2)CC1 [Example 255, 5-{5-[(4-acetylpiperazin-1-yl)carbonyl]-1-benzyl-1H-1,2,3-triazol-4-yl}-1H-indazole] | > 1.23

same assay, conditions: 11 data point; read-out: Ki (μM) 11 data point

Row | SMILES | Ki [µM]
10 | Fc1ccc(Cn2cc(-c3ccc4[nH]ncc4c3)nn2)cc1 [Example 10, 5-[1-(4-fluorobenzyl)-1H-1,2,3-triazol-4-yl]-1H-indazole] | 0.0563
11 | Clc1ccc(Cn2cc(-c3ccc4[nH]ncc4c3)nn2)c(Cl)c1 [Example 32, 5-[1-(2,4-dichlorobenzyl)-1H-1,2,3-triazol-4-yl]-1H-indazole] | 0.0127
12 | Nc1n[nH]c2ccc(-c3nnn(Cc4ccc(C(F)(F)F)cc4)c3-c3ccc(F)cc3)cc12 [Example 150, 5-{5-(4-fluorophenyl)-1-[4-(trifluoromethyl)benzyl]-1H-1,2,3-triazol-4-yl}-1H-indazol-3-amine] | 0.43
13 | O=S(=O)(Nc1n[nH]c2ccc(-c3nnn(Cc4ccccc4)c3-c3ccccc3)cc12)c1ccccc1 [Example 199, N-[5-(1-benzyl-5-phenyl-1H-1,2,3-triazol-4-yl)-1H-indazol-3-yl]benzenesulfonamide] | 0.34
14 | COc1ccc(NC(=O)Nc2n[nH]c3ccc(-c4nnn(Cc5ccccc5)c4-c4ccccc4)cc23)cc1 [Example 200, N-[5-(1-benzyl-5-phenyl-1H-1,2,3-triazol-4-yl)-1H-indazol-3-yl]-N′-(4-methoxyphenyl)urea] | 0.013
15 | CCS(=O)(=O)Nc1n[nH]c2ccc(-c3nnn(Cc4ccccc4)c3C3CC3)cc12 [Example 216, N-[5-(1-benzyl-5-cyclopropyl-1H-1,2,3-triazol-4-yl)-1H-indazol-3-yl]ethanesulfonamide] | 0.12
16 | O=S(=O)(Nc1n[nH]c2ccc(-c3nnn(Cc4ccccc4)c3C3CC3)cc12)c1ccccc1 [Example 217, N-[5-(1-benzyl-5-cyclopropyl-1H-1,2,3-triazol-4-yl)-1H-indazol-3-yl]benzenesulfonamide] | 1
17 | O=S(=O)(Nc1n[nH]c2ccc(-c3nnn(Cc4ccccc4)c3C3CC3)cc12)c1ccccc1Cl [Example 218, N-[5-(1-benzyl-5-cyclopropyl-1H-1,2,3-triazol-4-yl)-1H-indazol-3-yl]-2-chlorobenzenesulfonamide] | > 1.23
18 | O=S(=O)(Nc1n[nH]c2ccc(-c3nnn(Cc4ccccc4)c3C3CC3)cc12)c1ccc(Cl)cc1 [Example 220, N-[5-(1-benzyl-5-cyclopropyl-1H-1,2,3-triazol-4-yl)-1H-indazol-3-yl]-4-chlorobenzenesulfonamide] | 0.98
19 | CN(C)CCC(=O)Nc1n[nH]c2ccc(-c3cn(Cc4ccccc4)nn3)cc12 [Example 311, N^1-[5-(1-benzyl-1H-1,2,3-triazol-4-yl)-1H-indazol-3-yl]-N^3,N^3-dimethyl-beta-alaninamide] | > 1.23
20 | O=C1CN(CC(=O)Nc2n[nH]c3ccc(-c4cn(Cc5ccccc5)nn4)cc23)CCN1 [Example 314, N-[5-(1-benzyl-1H-1,2,3-triazol-4-yl)-1H-indazol-3-yl]-2-(3-oxopiperazin-1-yl)acetamide] | 0.18
21 | O=C(CNC1CCCCC1)Nc1n[nH]c2ccc(-c3cn(Cc4ccccc4)nn3)cc12 [Example 316, N^1-[5-(1-benzyl-1H-1,2,3-triazol-4-yl)-1H-indazol-3-yl]-N^2-cyclohexylglycinamide] | 0.5
22 | O=C(CNC1CCC1)Nc1n[nH]c2ccc(-c3cn(Cc4ccccc4)nn3)cc12 [Example 318, N^1-[5-(1-benzyl-1H-1,2,3-triazol-4-yl)-1H-indazol-3-yl]-N^2-cyclobutylglycinamide] | > 1.23
23 | CCS(=O)(=O)Nc1n[nH]c2ccc(-c3cn(Cc4ccccc4)nn3)cc12 [Example 320, N-[5-(1-benzyl-1H-1,2,3-triazol-4-yl)-1H-indazol-3-yl]ethanesulfonamide] | 0.41
24 | c1ccc(Cn2cc(-c3ccc4[nH]nc(NCC5CC5)c4c3)nn2)cc1 [Example 321, 5-(1-benzyl-1H-1,2,3-triazol-4-yl)-N-(cyclopropylmethyl)-1H-indazol-3-amine] | 0.57
25 | O=C1CCCN1c1n[nH]c2ccc(-c3cn(Cc4ccccc4)nn3)cc12 [Example 323, 1-[5-(1-benzyl-1H-1,2,3-triazol-4-yl)-1H-indazol-3-yl]pyrrolidin-2-one] | 0.18

Row | SMILES | Ki [µM]
26 | CN(C)C(=O)c1n[nH]c2ccc(-c3cn(Cc4ccccc4)nn3)cc12 [Example 396, 5-(1-benzyl-1H-1,2,3-triazol-4-yl)-N,N-dimethyl-1H-indazole-3-carboxamide] | 0.681
27 | Cn1ccnc1-c1n[nH]c2ccc(-c3cn(Cc4ccccc4)nn3)cc12 [Example 398, 5-(1-benzyl-1H-1,2,3-triazol-4-yl)-3-(1-methyl-1H-imidazol-2-yl)-1H-indazole] | 0.489
28 | c1ccc(Cn2cc(-c3ccc4[nH]nc(N5CCOCC5)c4c3)nn2)cc1 [Example 399, 5-(1-benzyl-1H-1,2,3-triazol-4-yl)-3-morpholin-4-yl-1H-indazole] | 0.63
29 | CN1CCN(c2n[nH]c3ccc(-c4cn(Cc5ccccc5)nn4)cc23)CC1 [Example 400, 5-(1-benzyl-1H-1,2,3-triazol-4-yl)-3-(4-methylpiperazin-1-yl)-1H-indazole] | 0.23
30 | c1ccc(Cn2cc(-c3ccc4[nH]nc(-c5nccs5)c4c3)nn2)cc1 [Example 404, 5-(1-benzyl-1H-1,2,3-triazol-4-yl)-3-(1,3-thiazol-2-yl)-1H-indazole] | 0.258
31 | c1ccc(Cn2cc(-c3ccc4[nH]nc(NCCN5CCOCC5)c4c3)nn2)cc1 [Example 407, 5-(1-benzyl-1H-1,2,3-triazol-4-yl)-N-(2-morpholin-4-ylethyl)-1H-indazol-3-amine] | 0.22
32 | CCCCNc1n[nH]c2ccc(-c3cn(Cc4ccccc4)nn3)cc12 [Example 410, 5-(1-benzyl-1H-1,2,3-triazol-4-yl)-N-butyl-1H-indazol-3-amine] | 0.04
33 | c1ccc(CNc2n[nH]c3ccc(-c4cn(Cc5ccccc5)nn4)cc23)cc1 [Example 411, N-benzyl-5-(1-benzyl-1H-1,2,3-triazol-4-yl)-1H-indazol-3-amine] | 0.12
34 | Clc1ccc(CNc2n[nH]c3ccc(-c4cn(Cc5ccccc5)nn4)cc23)cc1 [Example 412, 5-(1-benzyl-1H-1,2,3-triazol-4-yl)-N-(4-chlorobenzyl)-1H-indazol-3-amine] | 0.14
35 | COc1ccc(CNc2n[nH]c3ccc(-c4cn(Cc5ccccc5)nn4)cc23)cc1 [Example 413, 5-(1-benzyl-1H-1,2,3-triazol-4-yl)-N-(4-methoxybenzyl)-1H-indazol-3-amine] | 0.052
36 | Fc1cccc(CNc2n[nH]c3ccc(-c4cn(Cc5ccccc5)nn4)cc23)c1 [Example 414, 5-(1-benzyl-1H-1,2,3-triazol-4-yl)-N-(3-fluorobenzyl)-1H-indazol-3-amine] | 0.038
37 | N#Cc1ccc(CNc2n[nH]c3ccc(-c4cn(Cc5ccccc5)nn4)cc23)cc1 [Example 415, 4-({[5-(1-benzyl-1H-1,2,3-triazol-4-yl)-1H-indazol-3-yl]amino}methyl)benzonitrile] | 0.065
38 | Fc1ccc(CNc2n[nH]c3ccc(-c4cn(Cc5ccccc5)nn4)cc23)c(F)c1 [Example 416, 5-(1-benzyl-1H-1,2,3-triazol-4-yl)-N-(2,4-difluorobenzyl)-1H-indazol-3-amine] | 0.037
39 | c1ccc(Cn2cc(-c3ccc4[nH]nc(NCC5CCCCC5)c4c3)nn2)cc1 [Example 417, 5-(1-benzyl-1H-1,2,3-triazol-4-yl)-N-(cyclohexylmethyl)-1H-indazol-3-amine] | 0.35
40 | c1ccc(-n2cc(-c3ccc4[nH]ncc4c3)nn2)cc1 [Example 418, 5-(1-phenyl-1H-1,2,3-triazol-4-yl)-1H-indazole] | 0.192

tested on: HCT-116 cells; test: AlamarBlue Cell Viability Assays; assay type: cell-based; details: Homo sapiens, treated 72 hours
Description: AlamarBlue Cell Viability Assays
HCT-116 cells (3,000/well; 96-well format) were treated for 72 hours with increasing concentrations of compounds (0.01-30 μM in half-log increments). The cells were then incubated in fresh media with 10% AlamarBlue reagent (Invitrogen #DAL1100). AlamarBlue reactions were incubated according to the manufacturer's instructions (approximately 4 hours) and then analyzed using an fmax fluorescence microplate reader (Molecular Devices) using excitation/emission wavelengths of 544/595 nm. Data were analyzed using SOFTmax PRO software provided by the manufacturer.

Row | SMILES | EC50 [µM]
41 | Clc1ccc(Cn2cc(-c3ccc4[nH]ncc4c3)nn2)c(Cl)c1 [Example 32, 5-[1-(2,4-dichlorobenzyl)-1H-1,2,3-triazol-4-yl]-1H-indazole] | > 30
42 | COc1ccc(NC(=O)Nc2n[nH]c3ccc(-c4nnn(Cc5ccccc5)c4-c4ccccc4)cc23)cc1 [Example 200, N-[5-(1-benzyl-5-phenyl-1H-1,2,3-triazol-4-yl)-1H-indazol-3-yl]-N′-(4-methoxyphenyl)urea] | 13.5
43 | CCS(=O)(=O)Nc1n[nH]c2ccc(-c3nnn(Cc4ccccc4)c3C3CC3)cc12 [Example 216, N-[5-(1-benzyl-5-cyclopropyl-1H-1,2,3-triazol-4-yl)-1H-indazol-3-yl]ethanesulfonamide] | 19.1

From patent publication US9163007B2, “5-substituted indazoles as kinase inhibitors” (AbbVie Inc., priority 2007, dated 2015)
